Data reported in patent US20070264355A1, “BINARY COMPOSITIONS AND METHODS FOR STERILIZATION” (Binary, LLC, priority 2005, published 2007).

Columns and labels:
Staphylococcus aureus = assay: Microbicidal activity of commonly used antiseptics against Staphylococcus aureus; format: cell-based; settings: inoculum 1475000 CFU
Protocol: (§1) The performance of commonly used antiseptics was tested against Bacillus subtilis and Staphylococcus aureus, following the general procedure of Example 1, to assess the improvement provided by the binary system over these compounds.
[…] Chlorhexidine and IPA were neutralized with 500 microliters of a solution containing 3% Saponin, 3% Tween-80, 0.3% lecithin, and 0.1% histidine. Povidone Iodine was neutralized with 500 microliters of thiosulfate solution (2.4%).

Bacillus subtilis spores = assay: Microbicidal activity of commonly used antiseptics against Bacillus subtilis spores; format: cell-based; settings: inoculum 1865000 CFU
Protocol: as §1
After 60 minutes of exposure to the organisms, the individual antiseptics, indicated in Table 15 and Table 16, were neutralized using the corresponding neutralizing solutions prepared as listed below in Materials. Chlorhexidine and IPA were neutralized with 500 microliters of a solution containing 3% Saponin, 3% Tween-80, 0.3% lecithin, and 0.1% histidine. Povidone Iodine was neutralized with 500 microliters of thiosulfate solution (2.4%).

[1] = two percent, compared to 70% isopropyl alcohol and 10% povidone-iodine; cited from earlier work

For `[H]/N=C(\N/C(=N/[H])NCCCCCCNC(=N)NC(=N)Nc1ccc(Cl)cc1)Nc1ccc(Cl)cc1` [Chlorhexidine, Chlorhexidine Gluconate], the “Log 10 (CFU + 1) Survivors” value (Staphylococcus aureus; Chlorhexidine 0.020% 15 min) was 0.0, the “Log Reduction” value (Staphylococcus aureus; Chlorhexidine 0.020% 15 min) was 6.2 and the “Total Viability (CFU)” value (Staphylococcus aureus; Chlorhexidine 0.020% 15 min) was 0 CFU. For the same compound, the “Log 10 (CFU + 1) Survivors” value (Staphylococcus aureus; Chlorhexidine 0.200% 15 min) was 0.0, the “Log Reduction” value (Staphylococcus aureus; Chlorhexidine 0.200% 15 min) was 6.2 and the “Total Viability (CFU)” value (Staphylococcus aureus; Chlorhexidine 0.200% 15 min) was 0 CFU. For the same compound, the “Log 10 (CFU + 1) Survivors” value (Staphylococcus aureus; Chlorhexidine 2% 15 min) was 0.0, the “Log Reduction” value (Staphylococcus aureus; Chlorhexidine 2% 15 min) was 6.2 and the “Total Viability (CFU)” value (Staphylococcus aureus; Chlorhexidine 2% 15 min) was 0 CFU. The “Log 10 (CFU + 1) Survivors” value (Staphylococcus aureus; Chlorhexidine 20% 15 min) was 0.0, the “Log Reduction” value (Staphylococcus aureus; Chlorhexidine 20% 15 min) was 6.2 and the “Total Viability (CFU)” value (Staphylococcus aureus; Chlorhexidine 20% 15 min) was 0 CFU. For the same compound, the “Log 10 (CFU + 1) Survivors” value (Bacillus subtilis spores; Chlorhexidine 0.020% 60 min) was 5.8, the “Log Reduction” value (Bacillus subtilis spores; Chlorhexidine 0.020% 60 min) was 0.4 and the “Total Viability (CFU)” value (Bacillus subtilis spores; Chlorhexidine 0.020% 60 min) was 672000 CFU. The “Log 10 (CFU + 1) Survivors” value (Bacillus subtilis spores; Chlorhexidine 0.200% 60 min) was 4.3, the “Log Reduction” value (Bacillus subtilis spores; Chlorhexidine 0.200% 60 min) was 2.0 and the “Total Viability (CFU)” value (Bacillus subtilis spores; Chlorhexidine 0.200% 60 min) was 20020 CFU. The “Log 10 (CFU + 1) Survivors” value (Bacillus subtilis spores; Chlorhexidine 2% 60 min) was 5.0, the “Log Reduction” value (Bacillus subtilis spores; Chlorhexidine 2% 60 min) was 1.3 and the “Total Viability (CFU)” value (Bacillus subtilis spores; Chlorhexidine 2% 60 min) was 102200 CFU. The “Log 10 (CFU + 1) Survivors” value (Bacillus subtilis spores; Chlorhexidine 20% 60 min) was 5.5, the “Log Reduction” value (Bacillus subtilis spores; Chlorhexidine 20% 60 min) was 0.7 and the “Total Viability (CFU)” value (Bacillus subtilis spores; Chlorhexidine 20% 60 min) was 350000 CFU. For the same compound, the “prevention of catheter-related infections” value [1] was “superior”.
